Test results as given in US20050123906A1, “Protein modulation” (priority 2003, published 2005).
Non-standard residues stand in square brackets, D forms with d. Residues, ends and D or L forms follow the SMILES beside them. Nle = CCCC[C@H](N)C(=O)O

Experiments:
CFP-APO = assay: Vif-mediated depletion of CFP-APO with proteasome inhibition (immuno-blot, confocal microscopy); format: cell-based, human; settings: for CFP-APO levels in the absence of Vif: 293T cells, pNL-A1Δvif
Experimental: (§1) 293T cells were maintained in a humidified incubator (5% CO2) at 37° C. in Dulbecco's modified Eagle's medium (DMEM; Invitrogen) supplemented with 10% fetal bovine serum, 100 units/ml penicillin and 100 μg/ml streptomycin (Invitrogen). Qiagen-purified plasmid DNA (Qiagen, Valencia, Calif.) was transfected into 293T cells using Lipofectaminem 2000 lipofection agent (Invitrogen). For Western blot and immunoprecipitation experiments, 293T cells were transfected in either 6 or 12 well plates when the cells were ˜60% confluent. The amount of vector used and the molar ratio of vector for co-transfection experiments are described in the Results and figure legends. When necessary, final DNA amounts were made equal by the addition of pGEM (Promega). For live imaging and immuno-localization, 293T cells were seeded into poly-d-lysine coated 35 mm glass bottom culture dishes and transfected when the cells were ˜50% confluent. For proteasome inhibition studies, culture media containing 100 μM of N-Acetyl-Leu-Leu-Nle-CHO (ALLN, Calbiochem, La Jolla, Calif.) or the equivalent volume of DMSO was added to cells 12 hours prior to harvesting or imaging 36 hours post-transfection.
(§2) The level of Vif-mediated depletion of APOBEC3G was further determined over a broad range of Vif (pNL-A1):APOBEC3G (pCFP-APO) vector ratios ranging from 1:1 to 1:0.0625, where 1 refers to 130 fmoles of vector. The level of depletion was determined by comparing the steady-state levels of CFP-APO when co-expressed with Vif to the equivalent Δvif control (pNL-A1Δvif). […]
To prepare total protein lysates, each well of a 6- or 12-well plate was washed once in phosphate buffered saline (PBS, Invitrogen) and then lysed in either 400 or 200 μl, respectively, of Mammalian Protein Extraction Reagent (M-PER, Pierce, Rockford, Ill.) supplemented with 0.5% (v/v) Triton-X 100 (Pierce), 150 mM NaCl, 5 mM EDTA, and a 1/100 (v/v) dilution of a protease inhibitor cocktail for mammalian tissue for 30 minutes at 4° C. with gentle rotation. […] Protein concentration was determined by Dc protein assay (Bio-Rad, Hercules, Calif.). […]

Vif = assay: Steady-state levels of Vif with proteasome inhibition (immuno-blot); format: cell-based, HIV-1; settings: 293T cells, presence or absence of CFP-APO, 100 μM ALLN 12 hours
Experimental: as §1, with “For proteasome inhibition studies, culture media containing 100 μM of N-Acetyl-Leu-Leu-Nle-CHO (ALLN, Calbiochem, La Jolla, Calif.) or the equivalent volume of DMSO was added to cells 12 hours prior to harvesting or imaging 36 hours post-transfection.” left out
as §2

With `CCCC[C@@H](C=O)NC(=O)[C@H](CC(C)C)NC(=O)[C@H](CC(C)C)NC(C)=O` [ALLN, N-Acetyl-Leu-Leu-Nle-CHO] (Ac-Leu-Leu-[Nle]-aldehyde) the “CFP-APO levels by confocal microscopy” value (CFP-APO; 293T cells expressing Vif, pNL-A1:pCFP-APO 1:0.25, proteasome inhibition) was “elevated”, the “CFP-APO levels in the absence of Vif” value (CFP-APO; all ratios except 1:0.0625, 100 μM ALLN 12 hours) was “not significantly affected” and the “CFP-APO levels in the absence of Vif” value (CFP-APO; lowest pCFP-APO input (1:0.0625 ratio), 100 μM ALLN 12 hours) was “modest reduction in expression”. For the same molecule, the “Steady-state levels of Vif” value (Vif) was “elevated the steady-state levels of Vif”.
